Assay results from ChEMBL document CHEMBL1944561, “Discovery and SAR exploration of a novel series of imidazo[4,5-b]pyrazin-2-ones as potent and selective mTOR kinase inhibitors” (Bioorg Med Chem Lett, 2011).
pIC50: −log10 of the molar value.

Columns and labels:
[1] = molecular target: Epidermal growth factor receptor (Homo sapiens) (UniProt P00533); assay: Inhibition of EGFR assessed as activity remaining at 10 uM
[2] = molecular target: Serine/threonine-protein kinase PAK 4 (Homo sapiens) (UniProt O96013); assay: Inhibition of PAK4 assessed as activity remaining at 10 uM
Sequence of Serine/threonine-protein kinase PAK 4 (Homo sapiens) (O96013 whole entry, looked up): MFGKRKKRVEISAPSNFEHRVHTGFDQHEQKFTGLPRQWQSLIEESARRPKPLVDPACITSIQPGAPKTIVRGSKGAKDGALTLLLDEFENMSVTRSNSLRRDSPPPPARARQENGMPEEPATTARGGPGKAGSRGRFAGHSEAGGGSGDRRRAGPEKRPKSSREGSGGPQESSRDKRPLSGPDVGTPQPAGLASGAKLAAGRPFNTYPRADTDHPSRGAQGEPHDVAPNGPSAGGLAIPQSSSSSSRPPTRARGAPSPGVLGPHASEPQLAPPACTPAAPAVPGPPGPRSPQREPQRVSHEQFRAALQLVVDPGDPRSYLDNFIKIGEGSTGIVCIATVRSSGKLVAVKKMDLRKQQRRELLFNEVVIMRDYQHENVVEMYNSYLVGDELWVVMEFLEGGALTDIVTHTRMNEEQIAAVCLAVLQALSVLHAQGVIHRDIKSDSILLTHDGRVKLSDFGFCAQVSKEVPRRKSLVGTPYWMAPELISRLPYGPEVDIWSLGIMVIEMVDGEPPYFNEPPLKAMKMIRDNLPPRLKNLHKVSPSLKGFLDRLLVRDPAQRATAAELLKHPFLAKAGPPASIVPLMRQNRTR

[3] = molecular target: Vascular endothelial growth factor receptor 2 (Homo sapiens) (UniProt P35968); assay: Inhibition of KDR assessed as activity remaining at 10 uM
Sequence of Vascular endothelial growth factor receptor 2 (Homo sapiens) (P35968 whole entry): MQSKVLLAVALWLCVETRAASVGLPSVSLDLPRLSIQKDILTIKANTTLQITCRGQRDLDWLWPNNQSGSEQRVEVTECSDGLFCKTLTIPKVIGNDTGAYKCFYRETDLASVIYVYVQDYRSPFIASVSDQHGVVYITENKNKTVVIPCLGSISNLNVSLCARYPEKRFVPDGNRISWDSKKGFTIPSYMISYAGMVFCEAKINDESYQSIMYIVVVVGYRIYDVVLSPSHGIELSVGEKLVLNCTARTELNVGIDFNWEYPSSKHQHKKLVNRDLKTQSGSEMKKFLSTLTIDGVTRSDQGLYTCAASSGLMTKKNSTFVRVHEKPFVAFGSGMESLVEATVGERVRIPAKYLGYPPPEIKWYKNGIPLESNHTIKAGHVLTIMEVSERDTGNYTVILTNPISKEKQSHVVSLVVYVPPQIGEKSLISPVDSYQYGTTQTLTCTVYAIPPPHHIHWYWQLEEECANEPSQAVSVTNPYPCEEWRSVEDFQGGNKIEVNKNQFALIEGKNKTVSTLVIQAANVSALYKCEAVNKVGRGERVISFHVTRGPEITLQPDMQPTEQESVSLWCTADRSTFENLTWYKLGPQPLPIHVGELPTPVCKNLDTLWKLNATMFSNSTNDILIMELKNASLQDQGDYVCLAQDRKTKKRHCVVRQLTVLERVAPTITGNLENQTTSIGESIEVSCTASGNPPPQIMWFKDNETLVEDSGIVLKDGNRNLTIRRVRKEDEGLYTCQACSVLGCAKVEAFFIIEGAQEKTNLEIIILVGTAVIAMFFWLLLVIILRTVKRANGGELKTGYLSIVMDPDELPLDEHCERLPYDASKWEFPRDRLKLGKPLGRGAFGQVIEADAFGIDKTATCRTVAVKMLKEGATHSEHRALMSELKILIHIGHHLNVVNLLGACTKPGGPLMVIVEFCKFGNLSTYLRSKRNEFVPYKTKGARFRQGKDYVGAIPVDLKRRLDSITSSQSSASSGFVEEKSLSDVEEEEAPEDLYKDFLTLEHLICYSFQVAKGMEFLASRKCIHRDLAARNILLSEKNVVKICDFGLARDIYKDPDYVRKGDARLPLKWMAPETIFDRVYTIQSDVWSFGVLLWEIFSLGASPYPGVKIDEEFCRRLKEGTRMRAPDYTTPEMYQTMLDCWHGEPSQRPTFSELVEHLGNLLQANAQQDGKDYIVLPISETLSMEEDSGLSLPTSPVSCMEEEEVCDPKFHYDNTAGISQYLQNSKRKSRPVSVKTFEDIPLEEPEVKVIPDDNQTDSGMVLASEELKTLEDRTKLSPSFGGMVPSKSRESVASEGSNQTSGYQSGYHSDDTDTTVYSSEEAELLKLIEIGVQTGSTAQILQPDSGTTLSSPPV

[4] = molecular target: Tyrosine-protein kinase Fyn (Homo sapiens) (UniProt P06241); assay: Inhibition of Fyn assessed as activity remaining at 10 uM
Sequence of Tyrosine-protein kinase Fyn (Homo sapiens) (P06241 2-537 limits assumed): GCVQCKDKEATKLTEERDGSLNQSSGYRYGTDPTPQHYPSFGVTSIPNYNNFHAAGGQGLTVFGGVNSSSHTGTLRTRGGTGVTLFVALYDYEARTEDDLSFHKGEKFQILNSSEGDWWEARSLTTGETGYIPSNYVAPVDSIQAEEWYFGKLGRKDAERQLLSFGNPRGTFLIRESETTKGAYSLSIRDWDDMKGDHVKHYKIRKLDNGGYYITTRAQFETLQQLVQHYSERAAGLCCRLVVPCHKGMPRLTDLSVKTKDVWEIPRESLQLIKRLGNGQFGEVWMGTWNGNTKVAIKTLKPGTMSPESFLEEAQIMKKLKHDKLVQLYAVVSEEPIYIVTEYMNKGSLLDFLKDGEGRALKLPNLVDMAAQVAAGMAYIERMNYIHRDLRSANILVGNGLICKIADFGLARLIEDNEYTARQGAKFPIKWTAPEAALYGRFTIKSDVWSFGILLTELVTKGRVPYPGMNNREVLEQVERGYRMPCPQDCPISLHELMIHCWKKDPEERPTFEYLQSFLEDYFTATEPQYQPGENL

[5] = molecular target: Angiopoietin-1 receptor (Homo sapiens) (UniProt Q02763); assay: Inhibition of Tie2 assessed as activity remaining at 10 uM
Sequence of Angiopoietin-1 receptor (Homo sapiens) (Q02763 whole entry): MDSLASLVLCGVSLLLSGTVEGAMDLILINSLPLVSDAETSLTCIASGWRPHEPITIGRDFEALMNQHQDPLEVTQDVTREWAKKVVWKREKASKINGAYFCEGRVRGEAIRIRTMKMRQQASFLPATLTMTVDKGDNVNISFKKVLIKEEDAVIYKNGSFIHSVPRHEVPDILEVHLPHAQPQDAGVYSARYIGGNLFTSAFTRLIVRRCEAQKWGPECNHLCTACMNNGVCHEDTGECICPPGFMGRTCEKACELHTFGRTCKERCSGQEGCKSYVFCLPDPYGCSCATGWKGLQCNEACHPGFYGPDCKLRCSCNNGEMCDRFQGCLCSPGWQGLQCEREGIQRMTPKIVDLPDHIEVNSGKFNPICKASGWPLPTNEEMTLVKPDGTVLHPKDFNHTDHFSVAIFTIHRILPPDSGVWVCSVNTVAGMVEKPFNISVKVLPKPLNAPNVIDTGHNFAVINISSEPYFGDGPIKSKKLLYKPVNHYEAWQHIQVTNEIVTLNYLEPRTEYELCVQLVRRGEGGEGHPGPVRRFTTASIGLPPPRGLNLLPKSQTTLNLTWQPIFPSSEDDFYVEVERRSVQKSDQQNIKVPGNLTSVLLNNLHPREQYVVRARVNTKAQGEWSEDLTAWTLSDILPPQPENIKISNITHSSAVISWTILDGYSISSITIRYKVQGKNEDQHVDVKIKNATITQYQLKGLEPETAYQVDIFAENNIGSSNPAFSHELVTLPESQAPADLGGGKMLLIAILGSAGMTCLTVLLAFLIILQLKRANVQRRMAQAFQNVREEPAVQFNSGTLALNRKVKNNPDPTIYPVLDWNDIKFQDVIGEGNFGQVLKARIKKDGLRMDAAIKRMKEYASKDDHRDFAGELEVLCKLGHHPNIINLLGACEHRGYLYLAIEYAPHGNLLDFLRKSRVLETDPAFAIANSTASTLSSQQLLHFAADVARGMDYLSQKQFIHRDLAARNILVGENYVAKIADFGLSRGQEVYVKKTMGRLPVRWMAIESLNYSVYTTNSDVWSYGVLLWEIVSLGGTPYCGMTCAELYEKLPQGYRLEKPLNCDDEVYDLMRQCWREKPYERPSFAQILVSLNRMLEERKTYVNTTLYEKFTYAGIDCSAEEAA

[6] = molecular target: T1, Serine/threonine-protein kinase Sgk1 (Homo sapiens) (UniProt O00141); assay: Inhibition of SGK assessed as activity remaining at 10 uM
T1 sequence (whole entry): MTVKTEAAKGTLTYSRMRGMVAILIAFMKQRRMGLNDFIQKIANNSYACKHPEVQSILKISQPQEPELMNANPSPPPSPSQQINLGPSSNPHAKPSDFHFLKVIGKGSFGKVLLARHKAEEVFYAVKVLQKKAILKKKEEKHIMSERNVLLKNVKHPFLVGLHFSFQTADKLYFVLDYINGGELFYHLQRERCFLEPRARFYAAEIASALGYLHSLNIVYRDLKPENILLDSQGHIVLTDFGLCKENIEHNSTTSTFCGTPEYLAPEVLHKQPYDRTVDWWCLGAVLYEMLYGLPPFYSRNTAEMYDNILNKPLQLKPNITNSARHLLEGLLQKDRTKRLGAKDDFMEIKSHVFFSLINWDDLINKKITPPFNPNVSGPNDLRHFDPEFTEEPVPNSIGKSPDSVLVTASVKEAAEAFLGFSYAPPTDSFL

[7] = molecular target: Serine/threonine-protein kinase mTOR (Homo sapiens, UniProt P42345); assay: Inhibition of mTOR-mediated Akt phosphorylation in human PC3 cells; type: cell-based, PC-3
[8] = molecular target: T2, Aurora kinase A (Homo sapiens) (UniProt O14965); assay: Inhibition of Aurora-A assessed as activity remaining at 10 uM
T2 sequence (whole entry): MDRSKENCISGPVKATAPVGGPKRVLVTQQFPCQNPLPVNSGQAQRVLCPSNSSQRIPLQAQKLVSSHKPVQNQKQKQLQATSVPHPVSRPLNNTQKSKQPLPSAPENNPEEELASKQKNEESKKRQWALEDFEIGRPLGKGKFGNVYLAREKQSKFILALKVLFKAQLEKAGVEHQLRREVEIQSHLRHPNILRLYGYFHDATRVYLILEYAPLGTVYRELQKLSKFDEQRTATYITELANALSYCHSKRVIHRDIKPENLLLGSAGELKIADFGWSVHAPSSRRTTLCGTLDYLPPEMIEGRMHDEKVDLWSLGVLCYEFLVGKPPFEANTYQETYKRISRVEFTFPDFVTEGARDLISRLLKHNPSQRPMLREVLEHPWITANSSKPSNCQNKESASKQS

[9] = molecular target: T3, Inhibitor of nuclear factor kappa-B kinase subunit beta (Homo sapiens) (UniProt O14920); assay: Inhibition of IKK-beta assessed as activity remaining at 10 uM
T3 sequence (whole entry): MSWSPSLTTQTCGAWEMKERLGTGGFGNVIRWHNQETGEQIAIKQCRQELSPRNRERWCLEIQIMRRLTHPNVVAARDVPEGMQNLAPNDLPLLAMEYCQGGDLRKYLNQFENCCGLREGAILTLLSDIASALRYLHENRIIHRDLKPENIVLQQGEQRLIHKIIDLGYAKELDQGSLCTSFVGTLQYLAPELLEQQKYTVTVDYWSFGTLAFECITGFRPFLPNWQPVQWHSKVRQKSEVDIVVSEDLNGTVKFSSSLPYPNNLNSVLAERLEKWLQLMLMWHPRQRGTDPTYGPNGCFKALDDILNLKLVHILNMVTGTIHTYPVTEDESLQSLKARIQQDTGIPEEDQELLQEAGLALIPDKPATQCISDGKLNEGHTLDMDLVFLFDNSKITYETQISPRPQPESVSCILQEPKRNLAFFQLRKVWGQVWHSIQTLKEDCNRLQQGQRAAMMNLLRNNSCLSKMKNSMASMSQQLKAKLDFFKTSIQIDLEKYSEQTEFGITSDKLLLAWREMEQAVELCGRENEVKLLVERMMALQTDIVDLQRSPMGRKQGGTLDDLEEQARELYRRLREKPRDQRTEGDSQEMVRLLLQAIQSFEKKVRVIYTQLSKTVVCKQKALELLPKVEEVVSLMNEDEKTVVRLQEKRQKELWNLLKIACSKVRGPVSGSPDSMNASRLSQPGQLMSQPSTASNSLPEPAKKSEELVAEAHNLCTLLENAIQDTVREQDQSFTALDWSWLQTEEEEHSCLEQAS

[10] = molecular target: Proto-oncogene tyrosine-protein kinase receptor Ret (Homo sapiens) (UniProt P07949); assay: Inhibition of Ret assessed as activity remaining at 10 uM

Sequence of Epidermal growth factor receptor (Homo sapiens) (P00533 whole entry): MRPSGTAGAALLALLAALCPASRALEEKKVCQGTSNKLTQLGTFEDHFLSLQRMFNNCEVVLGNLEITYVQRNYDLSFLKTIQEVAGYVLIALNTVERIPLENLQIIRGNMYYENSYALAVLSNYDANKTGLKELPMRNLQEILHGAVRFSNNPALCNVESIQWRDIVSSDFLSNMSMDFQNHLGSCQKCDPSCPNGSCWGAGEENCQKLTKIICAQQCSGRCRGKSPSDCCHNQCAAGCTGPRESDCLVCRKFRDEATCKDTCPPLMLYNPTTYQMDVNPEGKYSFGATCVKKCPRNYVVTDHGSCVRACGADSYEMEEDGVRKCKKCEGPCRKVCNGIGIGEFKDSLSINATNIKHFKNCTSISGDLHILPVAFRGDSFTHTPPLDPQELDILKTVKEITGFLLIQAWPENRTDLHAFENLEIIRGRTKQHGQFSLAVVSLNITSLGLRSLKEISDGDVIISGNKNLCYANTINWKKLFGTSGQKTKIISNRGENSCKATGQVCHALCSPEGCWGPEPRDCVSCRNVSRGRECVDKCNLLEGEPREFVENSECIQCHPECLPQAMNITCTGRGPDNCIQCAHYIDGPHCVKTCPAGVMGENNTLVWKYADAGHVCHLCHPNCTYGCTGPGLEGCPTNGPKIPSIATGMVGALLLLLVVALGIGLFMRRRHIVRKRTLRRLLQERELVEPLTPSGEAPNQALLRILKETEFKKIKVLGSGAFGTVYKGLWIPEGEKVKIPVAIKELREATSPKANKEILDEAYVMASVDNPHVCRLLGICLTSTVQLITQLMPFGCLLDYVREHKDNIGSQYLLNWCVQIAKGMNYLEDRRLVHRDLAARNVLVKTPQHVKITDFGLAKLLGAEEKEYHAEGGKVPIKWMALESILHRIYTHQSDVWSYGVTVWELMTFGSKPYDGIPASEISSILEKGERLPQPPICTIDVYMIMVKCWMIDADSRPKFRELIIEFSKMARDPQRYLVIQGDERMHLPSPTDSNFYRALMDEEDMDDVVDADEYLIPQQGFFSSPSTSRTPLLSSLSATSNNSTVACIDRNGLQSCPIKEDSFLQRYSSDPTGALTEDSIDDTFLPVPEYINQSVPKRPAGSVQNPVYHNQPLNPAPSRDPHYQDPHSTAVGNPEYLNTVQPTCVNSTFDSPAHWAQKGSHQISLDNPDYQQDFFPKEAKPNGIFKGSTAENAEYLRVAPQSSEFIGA

O=c1[nH]c2ncc(-c3ccc4[nH]cnc4c3)nc2n1CC1CCCCC1
Activity [1]: 87%
Activity [2]: 81%
Activity [3]: 62%
Activity [4]: 67%
Activity [5]: 83%
Activity [6]: 53%
pIC50 [7]: 6.86
Activity [8]: 32%
Activity [9]: 82%
Activity [10]: 80%

CC(C)(O)c1ccc(-c2cnc3[nH]c(=O)n(CC4CCCCC4)c3n2)cc1
Activity [1]: 98%
Activity [2]: 87%
Activity [3]: 83%
Activity [4]: 73%
Activity [5]: 85%
Activity [6]: 96%
pIC50 [7]: 6.49
Activity [8]: 58%
Activity [9]: 91%
Activity [10]: 77%

O=c1[nH]c2ncc(-c3ccc(-c4nc[nH]n4)cc3)nc2n1CC1CCOCC1
Activity [1]: 88%
Activity [2]: 87%
Activity [3]: 88%
Activity [4]: 102%
Activity [5]: 86%
Activity [6]: 97%
pIC50 [7]: 6.82
Activity [8]: 79%
Activity [9]: 98%
Activity [10]: 84%
